Data as given in US11660270B2, “Nanoparticle compositions” (Indiana University Research and Technology Corporation, priority 2017, dated 2023).

How the values were obtained:
[1] = in vivo; cited from earlier work
[2] = Solvent screening for dissolving drugs and polymers; type: physicochemical; settings: added to 1 ml of test solvent, vortex; smallest amount of solvent for immediate solubilization
Experimental: The following solvents were compared for use as drug solvents in nanoprecipitation: acetone, ethanol, tetrahydrofuran (THF), acetic acid, acetonitrile, dimethylsulfoxide (DMSO), dimethylformamide (DMF), N-methylpyrrolidone (NMP), methanol, n-propanol and isopropanol.
Chloroform, dichloromethane (DCM), ethanol, acetone, methanol and ethyl acetate were tested as polymer solvents.
Drugs (thyrotropin-releasing hormone (TRH), oxytocin, and luteinizing hormone-releasing hormone (LHRH)) and polymers (polysebacic acid, and PLGA (poly(lactide-co-glycolide)) with either a 1:1 or 3:1 molar ratio of lactide to glycolide) were added to 1 ml of test solvent and stirred vigorously by vortex.

best solvent for dissolving [2] | Molecule | plasma half-life [1]
Ethanol | NC(=O)[C@@H]1CCCN1C(=O)[C@H](Cc1cnc[nH]1)NC(=O)[C@@H]1CCC(=O)N1 [TRH, pyroglutamyl-histidyl-proline-amide] | about 8 minutes
acetic acid | CC[C@H](C)[C@@H]1NC(=O)[C@H](Cc2ccc(O)cc2)NC(=O)[C@@H](N)CSSC[C@@H](C(=O)N2CCC[C@H]2C(=O)N[C@@H](CC(C)C)C(=O)NCC(N)=O)NC(=O)[C@H](CC(N)=O)NC(=O)[C@H](CCC(N)=O)NC1=O [oxytocin] | –

Molecule | best solvent for dissolving [2] | plasma half-life [1]
luteinizing hormone-releasing hormone [LHRH] | acetic acid | –
